The text below walks through data of US12325696B2, “Indazole derivative, preparation method therefor, and pharmaceutical application thereof” (JIANGSU HENGRUI MEDICINE CO., LTD., priority 2019, dated 2025).

The subject of one assay is MCF7 ERαY537S. Kind of assay: Inhibition of proliferation of MCF7 cell expressing ERα Y537S mutant. The class given is cell-based. As to conditions: Homo sapiens, 144 hours; for Emax: read-out: Maximum inhibition. In outline:
(§1)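 MCF7 cells stably expressing lentiviral ERα Y537S or D538G mutants, seeded 3,000 cells/well, then exposed in 2% FBS MEM to nine 4-fold dilutions from 100 nM for 144 h at 37° C. Viability read by CellTiter-Glo luminescence; IC50 fitted from concentration-response.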

Assay [1] relates to estrogen receptor reporter gene. Kind of assay: Inhibition of estrogen receptor reporter gene activity (ERE-luc luciferase) in MCF7/ERE-luc cells. The class given is cell-based. As to conditions: Homo sapiens, 0.1 nM β-estradiol, 20 hours, read-out: IC50 of inhibitory activity on the activity of the estrogen receptor reporter gene. In outline:
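MCF7 cells stably carrying ERE-driven luciferase, in charcoal-stripped serum medium, were stimulated with 0.1 nM β-estradiol plus compound (nine 10-fold dilutions from 10 μM) for 20 h at 37° C. ONE-Glo luminescence was read, and IC50 was fitted from signal versus log concentration.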
Background: Reporter assays use an easily measured gene product as a stand-in for the process of interest.

The subject of a further assay is MCF7 D538G. Briefly: Inhibition of proliferation of MCF7 cell expressing ERα D538G mutant. The class given is cell-based. As to conditions: Homo sapiens, 144 hours; for Emax: read-out: Maximum inhibition. In outline:
as §1

Assay [2] deals with estrogen receptor ERα Y537S mutant-type (Homo sapiens (Human), UniProt P03372, Y537S). Briefly: Covalent modification of ERα Y537S mutant-type LBD by high-resolution mass spectrometry. The class given is binding. The note with it: after 24 hours; 2 μM protein, 10 μM compound, 4° C.
Chain of estrogen receptor ERα Y537S mutant-type (P03372 296-554 Y537S): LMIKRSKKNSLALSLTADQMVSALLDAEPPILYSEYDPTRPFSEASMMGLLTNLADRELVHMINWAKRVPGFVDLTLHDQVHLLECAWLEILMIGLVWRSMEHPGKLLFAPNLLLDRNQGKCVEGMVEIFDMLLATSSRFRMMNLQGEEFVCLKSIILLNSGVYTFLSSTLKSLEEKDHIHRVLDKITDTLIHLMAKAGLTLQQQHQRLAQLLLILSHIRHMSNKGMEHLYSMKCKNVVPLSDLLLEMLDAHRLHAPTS

For the compound `O=C(/C=C/CNC1(COc2ccc(/C(=C(/CC(F)(F)F)c3ccccc3)c3ccc4[nH]nc(F)c4c3)cn2)CC1)N1CCOCC1` [Example 1, (E)-1-Morpholino-4-((1-(((5-((Z)-4,4,4-trifluoro-1-(3-fluoro-1H-indazol-5-yl)-2-phenylbut-1-en-1-yl)pyridin-2-yl)oxy)methyl)cyclopropyl)amino)but-2-en-1-one], the half-maximal inhibitory concentration (IC50) in the assay on MCF7 ERαY537S was found to be 3 nM; in assay [1], 1 nM; in the assay on MCF7 D538G it was 2 nM. Further, the Emax in the assay on MCF7 ERαY537S and in the assay with MCF7 D538G was 100% each time. Also, in assay [2], the “Covalent modification effect on the estrogen receptor ERα Y537S mutant-type” value (shortened to “Covalent modification effect”) worked out at 97%.
As for `CN(C)C(=O)/C=C/CN1CCC[C@@H](Oc2ccc(/C(=C(/CC(F)(F)F)c3ccccc3)c3ccc4[nH]nc(F)c4c3)cn2)C1` [Example 14, (E)-N,N-Dimethyl-4-((R)-3-((5-((Z)-4,4,4-trifluoro-1-(3-fluoro-1H-indazol-5-yl)-2-phenylbut-1-en-1-yl)pyridin-2-yl)oxy)piperidin-1-yl)but-2-enamide], the IC50 came to 6 nM in the assay with MCF7 ERαY537S, 2 nM in assay [1] and 3 nM in the assay on MCF7 D538G. The figures for the Emax in the assay with MCF7 ERαY537S and in the assay with MCF7 D538G were 97% and 107%, respectively. The “Covalent modification effect” value in assay [2] turned out to be 94%.
Regarding `O=C(/C=C/CN1CCC[C@@H](Oc2ccc(/C(=C(/CC(F)(F)F)c3ccccc3)c3ccc4[nH]nc(F)c4c3)cn2)C1)N1CCCC1` [Example 15, (E)-1-(Pyrrolidin-1-yl)-4-((R)-3-((5-((Z)-4,4,4-trifluoro-1-(3-fluoro-1H-indazol-5-yl)-2-phenylbut-1-en-1-yl)pyridin-2-yl)oxy)piperidin-1-yl)but-2-en-1-one], the half-maximal inhibitory concentration (IC50) in the assay with MCF7 ERαY537S turned out to be 2 nM; in assay [1], 3 nM; in the assay with MCF7 D538G, 1 nM. Besides, the Emax is 102% in the assay on MCF7 ERαY537S and 105% with MCF7 D538G. In addition, in assay [2], the “Covalent modification effect” value was 96%.
On to `CN(C)C(=O)/C=C/CNC1(COc2ccc(/C(=C(/CC(F)(F)F)c3ccccc3)c3ccc4[nH]nc(F)c4c3)cn2)CC1` [Example 39, (E)-N,N-Dimethyl-4-((1-(((5-((Z)-4,4,4-trifluoro-1-(3-fluoro-1H-indazol-5-yl)-2-phenylbut-1-en-1-yl)pyridin-2-yl)oxy)methyl)cyclopropyl)amino)but-2-enamide], for which the half-maximal inhibitory concentration (IC50) amounted to 1 nM in the assay with MCF7 ERαY537S, 2 nM in assay [1] and 0.6 nM in the assay on MCF7 D538G. Further, the values for the Emax in the assay on MCF7 ERαY537S and in the assay on MCF7 D538G were 112% and 105%, respectively. Further, the “Covalent modification effect” value in assay [2] is 98%.
As for `O=C(/C=C/CNC1(COc2ccc(/C(=C(/CC(F)(F)F)c3ccccc3)c3ccc4[nH]nc(F)c4c3)cn2)CC1)N1CC(O)C1` [Example 40, (E)-1-(3-Hydroxyazetidin-1-yl)-4-((1-(((5-((Z)-4,4,4-trifluoro-1-(3-fluoro-1H-indazol-5-yl)-2-phenylbut-1-en-1-yl)pyridin-2-yl)oxy)methyl)cyclopropyl)amino)but-2-en-1-one], the IC50 in the assay on MCF7 ERαY537S was found to be 0.5 nM; in assay [1], 2 nM; with MCF7 D538G, 0.2 nM. The Emax with MCF7 ERαY537S is 112%; in the assay on MCF7 D538G it was 106%. Also, in assay [2], the “Covalent modification effect” value worked out at 98%.
As to `O=C(/C=C/CNC1(COc2ccc(/C(=C(/CC(F)(F)F)c3ccccc3)c3ccc4[nH]nc(F)c4c3)cn2)CC1)N1CC[C@H](O)C1` [Example 41, (E)-1-((S)-3-Hydroxypyrrolidin-1-yl)-4-((1-(((5-((Z)-4,4,4-trifluoro-1-(3-fluoro-1H-indazol-5-yl)-2-phenylbut-1-en-1-yl)pyridin-2-yl)oxy)methyl)cyclopropyl)amino)but-2-en-1-one], the 50% inhibitory concentration (IC50) came out at 0.6 nM in the assay with MCF7 ERαY537S, 3 nM in assay [1] and 0.2 nM in the assay on MCF7 D538G. For the same compound, the Emax turned out to be 111% in the assay with MCF7 ERαY537S and 106% in the assay on MCF7 D538G. For the same compound, the “Covalent modification effect” value in assay [2] is 95%.
Regarding `O=C(/C=C/CNC1(COc2ccc(/C(=C(/CC(F)(F)F)c3ccccc3)c3ccc4[nH]nc(F)c4c3)cn2)CC1)N1CCO[C@@H](CO)C1` [Example 42, (E)-1-((R)-2-(Hydroxymethyl)morpholino)-4-((1-(((5-((Z)-4,4,4-trifluoro-1-(3-fluoro-1H-indazol-5-yl)-2-phenylbut-1-en-1-yl)pyridin-2-yl)oxy)methyl)cyclopropyl)amino)but-2-en-1-one], the concentration for half-maximal inhibition (IC50) with MCF7 ERαY537S was 0.2 nM; in assay [1], 0.7 nM; in the assay with MCF7 D538G, 0.1 nM. For the same compound, the Emax with MCF7 ERαY537S was found to be 107%; in the assay on MCF7 D538G it was 105%. Moreover, the “Covalent modification effect” value in assay [2] is listed as 97%.

A word on the IC50: it is the concentration that inhibits the measured activity by half.
